Here are results for five compounds from patent US20110071129A1, “SPIRODIAMINE-DIARYL KETOXIME DERIVATIVE” (priority 2008, published 2011).

Structures are written as SMILES.

This assay has as its target T1, human MCH-1R (Homo sapiens, UniProt Q99705).
T1 construct: expressed in transfected cells; host or cells: CHO-K1 (American Type Culture Collection), vector pEF/myc/cyto; membranes used
In words: MCH binding inhibition test. As to conditions: inhibition of specific [125I]MCH (50 pM) binding; membranes of MCH-1R expressing CHO-K1 cells; 25° C., one hour. As to the method: A human MCH-1R encoding cDNA sequence [FEBS Letters, Vol. 398, 253 (1996); Biochimica et Biophisica Acta, Vol. 1401, 216 (1998)] was cloned to a plasmid vector pEF/myc/cyto (by Invitrogen Corporation). The obtained expression vector was transfected to host cells CHO-K1 (American Type Culture Collection) using Lipofectamine Plus Reagent (by Life Technology Inc.) to provide MCH-1R expression cells.
Membrane samples prepared from the MCH-1R expression cells were incubated with each test compound and 50 pM of [^125I]MCH (by NEN Co.), in an assay buffer (50 mM Tris buffer comprising 10 mM magnesium chloride, 2 mM ethylenediamine tetraacetate, 0.01% bacitracin and 0.2% bovine serum albumin; pH 7.4) at 25° C. for an hour, followed by filtration through a glass filter GF/C (by Wattman Co.). After washing the glass filter with 50 mM Tris buffer (pH 7.4) comprising 10 mM magnesium chloride, 2 mM ethylenediamine tetraacetate and 0.04% Tween-20, the radioactive activity on the glass filter was measured. The non-specific binding was measured in the presence of 1 μM human MCH, and the 50% inhibition concentration (IC50 value) of each test compound to the specific [^125I]MCH binding was determined.

T1 sequence (Q99705 whole entry): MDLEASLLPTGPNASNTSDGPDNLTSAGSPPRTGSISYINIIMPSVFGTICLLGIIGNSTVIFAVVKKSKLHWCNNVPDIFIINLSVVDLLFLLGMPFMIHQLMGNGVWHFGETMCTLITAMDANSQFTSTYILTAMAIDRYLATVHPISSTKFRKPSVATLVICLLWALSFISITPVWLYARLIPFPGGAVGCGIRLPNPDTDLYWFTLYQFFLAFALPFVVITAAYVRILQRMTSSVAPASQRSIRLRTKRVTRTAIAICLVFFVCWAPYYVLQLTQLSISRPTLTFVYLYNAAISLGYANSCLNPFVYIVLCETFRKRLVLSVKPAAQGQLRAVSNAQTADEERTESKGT

Turning to `CCO/N=C(\c1ccc(F)c(F)c1)c1ccc(CN2CC3(CCN(c4ccc(F)nc4)C3)C2)cn1` [Example 1-10, (E)-(3,4-difluorophenyl)(5-{[6-(6-fluoro-3-pyridinyl)-2,6-diazaspiro[3.4]oct-2-yl]methyl}-2-pyridinyl)methanone O-ethyloxime], the 50% inhibitory concentration (IC50) (in general, the point on the concentration scale where inhibition reaches its midpoint) amounted to 7.6 nM. `CCO/N=C(\c1ccc(F)c(F)c1)c1ccc(CN2CCC3(CCN(c4ccnnc4)C3)C2)cn1` (centres unmarked) [Example 2-3, (E)-(3,4-difluorophenyl)(5-{[7-(4-pyrazinyl)-2,7-diazaspiro[4.4]non-2-yl]methyl}-2-pyridinyl)methanone O-ethyloxime] returned an IC50 of 3.2 nM. For `CCO/N=C(\c1ccc(F)c(F)c1)c1ccc(CN2CC3(C2)CN(c2ccnc(C)c2)C3)cn1` [Example 2-24, (E)-(3,4-difluorophenyl)(5-{[6-(2-methyl-4-pyridinyl)-2,6-diazaspiro[3.3]hept-2-yl]methyl}-2-pyridinyl)methanone O-ethyloxime] the value was 2.4 nM. Then `CCO/N=C(\c1ccc(F)c(F)c1)c1ccc(CN2CC3(C2)CN(c2ccn4ccnc4c2)C3)cn1` [Example 2-40, (E)-(3,4-difluorophenyl){5-[(6-imidazo[1,2-a]pyridin-7-yl-2,6-diazaspiro[3.3]hept-2-yl)methyl]-2-pyridinyl}methanone O-ethyloxime], with 0.9 nM; and `CCCc1cnc2cc(N3CC4(CN(Cc5ccc(/C(=N/OCC)c6ccc(F)c(F)c6)nc5)C4)C3)ccn12` [Example 2-44, (E)-(3,4-difluorophenyl)(5-{[6-(3-propylimidazo[1,2-a]pyridin-7-yl)-2,6-diazaspiro[3.3]hept-2-yl]methyl}-2-pyridinyl)methanone O-ethyloxime], with 0.36 nM.
